# Reference: patent US7612208B2, “Crystalline form of the salt of 4-(3-chloro-4-(cyclopropylaminocarbonyl)aminophenoxy)-7-methoxy-6-quinolinecarboxamide or the solvate of the salt and a process for preparing the same” (Eisai R&D Management Co., Ltd., priority 2003, dated 2009)
# Key:
# [1] = Temperature-controlled powder X-ray diffraction; assay type: physicochemical; conditions: 2° C./min
# Description: Powder X-ray diffraction was conducted under the measurement conditions similar to those in 4. (powder X-ray diffraction) of Test Examples 3. The temperature was increased according to the following conditions. • Temperature controller: PCT-20 (manufactured by Rigaku Denki K.K.) • Rate for the increase of the temperature: 2° C./min • Measurement temperatures: 30° C., 40° C., 60° C., 80° C., 120° C., 140° C., 180° C., 200° C., 205° C., 210° C. and 215° C. [Results]
# [2] = Study of pharmacokinetics in beagle dogs; assay type: in vivo; conditions: mean ± standard error; for BA: beagle dogs n=3, oral 3 mg/kg as free form vs single intravenous administration of free form
# Description: A crystalline form of the free from of the carboxamide (obtained in Preparation Example 1), a crystalline form of the hydrobromide of the carboxamide (obtained in Example 2) and a crystalline form of the mesylate of the carboxamide (Form A) (obtained in Example 5) were grounded in a mortar, encapsulated in a gelatin capsule, and then administered orally to beagle dogs (n=3). After administration, 10 mL of water was further administered orally. The dose was set such that it was equivalent to 3 mg/kg as a free form, and the beagle dogs were fasted from the day before administration, and fed again 8 hours after the administration.
# To calculate bioavailability (BA), a test was conducted using a single intravenous administration. More specifically, a crystalline form of the free from of the carboxamide was dissolved in a solution containing 10% dimethyl sulfoxide, 50% polyethylene glycol 400 and 40% 0.1 M aqueous solution of hydrochloric acid and administered intravenously through cephalic vein of the foreleg.
# The plasma concentration of the carboxamide was measured by HPLC-UV method after sampling blood from cephalic vein of the foreleg. Based on the concentration, pharmacokinetic parameters were calculated for each individual by the moment method. Further, based on the calculated parameters, the mean value and standard error thereof were calculated.
# [3] = Test for measuring dissolution rate (rotating disk method); assay type: physicochemical; conditions: 2nd fluid pH 6.8, 37° C., 50 rpm
# Description: The dissolution rates of the following crystals were measured under the conditions described below by the rotating disk method (see, J. H. Woods et al., J. Pharm. Soc., 54, 1068 (1955)): a crystalline form of the free carboxamide (obtained in Preparation Example 1), a crystalline form of the hydrochloride of the carboxamide (obtained in Example 1), a crystalline form of the hydrobromide of the carboxamide (obtained in Example 2), a crystalline form of the methanesulfonate (hereunder, referred to as “mesylate”) of the carboxamide (Form A) (obtained in Example 5), a crystalline form of the mesylate of the carboxamide (Form C) (obtained in Example 7) and a crystalline form of the ethanesulfonate (hereunder, referred to as “esylate”) (Form β) (obtained in Example 12). The dissolution rates were calculated based on a range in which linearity was maintained in the relation between concentration and time at the initial stage of dissolution.
# (Rotating Disk Method Conditions)
# • Solvent: “2nd fluid” (pH 6.8, 500 mL) as described in Japanese Pharmacopoeia 14th Edition, General Tests (disintegration test) • Temperature: 37° C. • Disk rotation speed: 50 rpm • Area of powder contacting with solvent on disk: 1 cm^2 • Sampling amount: approx. 1 mL (HPLC Conditions) • Column: Cadenza CD-18 (Imtakt Corporation; inner diameter 4.6 mm, Column length 100 mm, particle size 3 μm) • Column temperature: 40° C. • Flow rate: 1.0 mL/min • Mobile phase:
# Concentration of solution B: 20% • Injection amount: 100 μL • Detection: ultraviolet absorbance photometer (wavelength: 252 nm) • Temperature of auto sampler: 25° C. [Results]
# c-Kit kinase = c-Kit kinase (Homo sapiens, UniProt P10721); conditions: cited from earlier work
# c-Kit kinase, sequence (P10721 26-976): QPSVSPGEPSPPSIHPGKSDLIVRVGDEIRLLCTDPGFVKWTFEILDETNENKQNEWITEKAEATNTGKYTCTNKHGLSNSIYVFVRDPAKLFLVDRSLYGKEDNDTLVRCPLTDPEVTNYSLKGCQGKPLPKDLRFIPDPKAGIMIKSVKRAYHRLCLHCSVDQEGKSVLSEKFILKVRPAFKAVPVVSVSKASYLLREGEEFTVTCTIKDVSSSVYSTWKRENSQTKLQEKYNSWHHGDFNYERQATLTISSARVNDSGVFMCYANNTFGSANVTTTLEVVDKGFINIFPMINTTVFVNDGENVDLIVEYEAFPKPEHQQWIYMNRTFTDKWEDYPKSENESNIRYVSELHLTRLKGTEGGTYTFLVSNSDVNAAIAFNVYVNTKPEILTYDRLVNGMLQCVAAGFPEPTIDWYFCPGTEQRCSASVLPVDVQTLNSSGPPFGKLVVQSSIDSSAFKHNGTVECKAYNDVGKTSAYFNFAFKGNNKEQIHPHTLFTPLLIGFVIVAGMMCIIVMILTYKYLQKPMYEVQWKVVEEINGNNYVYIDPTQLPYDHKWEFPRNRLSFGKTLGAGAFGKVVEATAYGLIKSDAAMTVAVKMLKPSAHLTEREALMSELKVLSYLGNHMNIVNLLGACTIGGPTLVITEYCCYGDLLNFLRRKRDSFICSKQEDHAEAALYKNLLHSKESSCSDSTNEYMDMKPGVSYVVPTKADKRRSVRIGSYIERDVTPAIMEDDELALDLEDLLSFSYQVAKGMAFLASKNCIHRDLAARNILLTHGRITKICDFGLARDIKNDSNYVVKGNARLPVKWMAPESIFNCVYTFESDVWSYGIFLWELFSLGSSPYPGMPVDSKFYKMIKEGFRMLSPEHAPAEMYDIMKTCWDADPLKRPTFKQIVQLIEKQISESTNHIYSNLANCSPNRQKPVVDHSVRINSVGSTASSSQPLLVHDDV
# angiogenesis = conditions: free-form product; Example 368 of WO 02/32872; cited from earlier work
# [4] = Evaluation of hygroscopicity (storage 1 week; water content, powder X-ray diffraction); assay type: physicochemical
# Description: The hygroscopicity and solid stability of a crystalline form of the mesylate of the carboxamide (Form A) (obtained in Example 5), a crystalline form of the mesylate of the carboxamide (Form C) (obtained in Example 7), a crystalline form of the acetic acid solvate of the mesylate of the carboxamide (Form I) (obtained in Example 10) and a crystalline form of the esylate of the carboxamide (Form β) (obtained in Example 12) were measured under the following conditions.
# 1. Storage Conditions for the Hygroscopicity Test (Period: 1 Week)
# a-1. 25° C., relative humidity 75%
# b-1. 25° C., relative humidity 93%
# Analysis was carried out according to “X-Ray Powder Diffraction Method” described in Japanese Pharmacopoeia 14th Edition, General Tests (B-614 to 619) under the following measurement conditions. • Apparatus: RINT-2000 (manufacture by Rigaku Denki K. K.) • X-ray: CuKα ray • Monochrometer: curved crystal monochrometer • Goniometer: vertical goniometer • Counter: scintillation counter • Applied voltage: 40 kV • Charging current: 200 mA • Scan speed: 5°/min • Scan axis: 2θ/θ • Scan range; 2θ+5° to 40° • Divergent slit: 0.5° • Scattering slit: 0.5° • Receiving slit: 0.3 mm 5. Measurement of Water Content
# Measurement was carried out according to the Water Determination as described in Japanese Pharmacopoeia 14th Edition, General Tests (B-318 to 331) using 6 to 10 mg of each crystal.
# [5] = Evaluation of solid stability (storage 2 weeks; total impurity by HPLC, water content, powder X-ray diffraction); assay type: physicochemical
# Description: 2. Storage Conditions for the Solid Stability Test (Period: 2 Weeks) a-2. −20° C. (well closed) b-2. 25° C., light irradiation (1000 1×; shading with aluminum foil, well closed) c-2. 25° C., light irradiation (1000 1×; well closed) […]
# e-2. 60° C. (well closed except the following case: slightly open in the case of a crystalline form of the acetic acid solvate of the mesylate (Form I))
# 3. Method for Measuring the Impurity Amount by HPLC
# After storage, the sample solution was prepared by adding a mixed solvent of water and methanol (3:1) to each crystal at 0.1 mg/mL as final concentration.
# Tests were conducted by the HPLC method for these sample solutions under the measurement conditions described below, and the eluted peak areas were measured to determine the total impurity amount by the relative area method (impurities of 0.05% or more were counted).
# (Formula for Calculating Total Impurity Amount)
# • Individual impurity amount (%)=(the peak area for the individual impurity)×100/{(the peak area for carboxamide)+(sum of the peak areas for impurities)} • Total impurity amount (%)=sum of individual impurity amounts (HPLC Measurement Conditions) • Column: Mightysil RP-18 GP (Kanto Kagaku; inner diameter 4.6 mm, column length 150 mm, particle size 3 μm) • Column temperature: constant temperature in vicinity of 40° C. • Flow rate: 1.0 mL/min • Mobile phase:
# Solution B: CH3CN:H2O:HClO4=900:100:1 (v/v/v) • Gradient conditions […]
# • Injection amount: 10 μL • Detection: ultraviolet absorbance photometer (wavelength: 252 nm) • Temperature of auto sampler: constant temperature in vicinity of 10° C. 4. Powder X-ray Diffraction […]
# Measurement of Water Content
# [6] = Powder X-ray diffraction with a treatment of humidification; assay type: physicochemical; conditions: room temperature
# Description: Powder X-ray diffraction was measured under the measurement conditions similar to those in 4. (powder X-ray diffraction) of Test Example 3. Humidification was carried out using a humidity control unit HUM-1A (manufactured by Rigaku Denki K. K.)), to sequentially adjust relative humidity to 3%, 30%, 50%, 60%, 70%, 75%, 80% and 85% at room temperature.
# [7] = beagle dogs n=3, oral, gelatin capsule, 3 mg/kg as free form, fasted
# [8] = 25° C., relative humidity 75% or 93%, 1 week
# [9] = a-2: −20° C. (well closed), 2 weeks
# [10] = b-2: 25° C., light irradiation 1000 lx, shading with aluminum foil, well closed, 2 weeks
# [11] = c-2: 25° C., light irradiation 1000 lx, well closed, 2 weeks
# [12] = d-2: 40° C., relative humidity 75%, 2 weeks
# [13] = e-2: 60° C., 2 weeks (well closed; slightly open for Form I)
smiles,measurement,setting,value
COc1cc2nccc(Oc3ccc(NC(=O)NC4CC4)c(Cl)c3)c2cc1C(N)=O.CS(=O)(=O)O.C[S+](C)[O-] [Dimethyl Sulfoxide Solvate of Methanesulfonate of 4-(3-chloro-4-(cyclopropylaminocarbonyl)aminophenoxy)-7-methoxy-6-quinolinecarboxamide],crystal transition on heating,[1]; temperatures from 30° C. to 80° C.,crystal transition was not observed
same,crystal transition on heating,[1]; temperatures of 120° C. or more,transition to a crystalline form of the mesylate (Form C) was observed
"COc1cc2nccc(Oc3ccc(NC(=O)NC4CC4)c(Cl)c3)c2cc1C(N)=O [free form, 4-(3-chloro-4-(cyclopropylaminocarbonyl)aminophenoxy)-7-methoxy-6-quinolinecarboxamide]",BA,[2],9.1 ± 0.4%
same,AUC(0-t),"[2]; dog, plasma, beagle dogs n=3, oral, gelatin capsule, 3 mg/kg as free form, fasted, read-out: AUC0-24hr",600 ng·h/mL
same,Cmax,"[2]; dog, plasma, beagle dogs n=3, oral, gelatin capsule, 3 mg/kg as free form, fasted, read-out: Maximum plasma concentration (Cmax)",53.3 ± 9.9 ng/mL
same,concentration at 24 h,"[2]; dog, plasma, beagle dogs n=3, oral, gelatin capsule, 3 mg/kg as free form, fasted, read-out: plasma concentration after 24 hours (C24hr)",24 ± 9 ng/mL
same,Tmax,"[2]; dog, plasma, beagle dogs n=3, oral, gelatin capsule, 3 mg/kg as free form, fasted, read-out: time to reach maximum plasma concentration (Tmax)",1.17 ± 0.4 h
same,dissolution rate,[3],0.8 μg/min/cm^2
same,inhibitory action for c-Kit kinase,c-Kit kinase,strong inhibitory action
same,angiogenesis inhibition,angiogenesis,excellent angiogenesis inhibition
"COc1cc2nccc(Oc3ccc(NC(=O)NC4CC4)c(Cl)c3)c2cc1C(N)=O.CS(=O)(=O)O [mesylate (Form A), Methanesulfonate of 4-(3-chloro-4-(cyclopropylaminocarbonyl)aminophenoxy)-7-methoxy-6-quinolinecarboxamide]",BA,[2],46.2 ± 5.9%
same,AUC0-24hr,[2]; [7],3000 ± 400 ng·h/mL
same,Maximum plasma concentration (Cmax),[2]; [7],397.1 ± 100.1 ng/mL
same,plasma concentration after 24 hours (C24hr),[2]; [7],17.1 ± 2.5 ng/mL
same,time to reach maximum plasma concentration (Tmax),[2]; [7],1.67 ± 0.3 h
same,dissolution rate,[3],11.8 μg/min/cm^2
same,change in appearance and crystal transition,[4]; [8],Neither remarkable change in appearance nor crystal transition was observed
same,change of water content,[4]; [8],did not change remarkably
same,hygroscopicity,[4]; [8],not observed
same,water content,"[4]; a-1: 25° C., relative humidity 75%, 1 week",0.6%
same,water content,"[4]; b-1: 25° C., relative humidity 93%, 1 week",0.7%
same,water content,"[4]; hygroscopicity test, initial",0.7%
same,total impurity,[5]; [9],3.90%
same,water content,[5]; [9],0.0%
same,total impurity,[5]; [10],3.95%
same,water content,[5]; [10],0.0%
same,total impurity,[5]; [11],4.23%
same,water content,[5]; [11],0.1%
same,total impurity,[5]; [12],3.90%
same,water content,[5]; [12],0.2%
same,total impurity,[5]; [13],3.97%
same,water content,[5]; [13],0.2%
same,"changes in water content and appearance, crystal transition","[5]; solid stability test, 2 weeks, all storage conditions",neither remarkable changes in water content and appearance nor crystal transition was observed
same,water content,"[5]; solid stability test, initial",0.3%
same,total impurity,"[5]; solid stability test, initial, HPLC relative area",4.02%
"COc1cc2nccc(Oc3ccc(NC(=O)NC4CC4)c(Cl)c3)c2cc1C(N)=O.CS(=O)(=O)O [mesylate (Form B), Methanesulfonate of 4-(3-chloro-4-(cyclopropylaminocarbonyl)aminophenoxy)-7-methoxy-6-quinolinecarboxamide]",crystal transition on humidification,[6]; relative humidity from 3% to 70%,did not exhibit a crystal transition
same,crystal transition on humidification,[6]; relative humidity of 75% and 80%,mixture of crystalline forms of the mesylate (Form B) and (Form C)
same,crystal transition on humidification,[6]; relative humidity of 85%,complete transition to a crystalline form of the mesylate (Form C)
